Activity calls are given as the source filed them. No cut-off for these calls is given here.
Assays:
Quadruplex DNA [1] = test: Binding affinity to G-quadruplex DNA in human MDA-MB-231 cells at 2 uM incubated for 30 mins by Hoechst 33342 staining based confocal microscopic analysis; format: cell-based
Quadruplex DNA [2] = test: Binding affinity to Parallel KRAS G-quadruplex DNA (unknown origin) assessed as increase in fluorescence intensity at 5 uM by fluorescence spectrophotometric analysis; format: nucleic-acid assay
Quadruplex DNA [3] = test: Binding affinity to Parallel PS2M G-quadruplex DNA (unknown origin) assessed as increase in fluorescence intensity at 5 uM by fluorescence spectrophotometric analysis; format: nucleic-acid assay
Quadruplex DNA [4] = test: Binding affinity to Parallel CHL1 G-quadruplex DNA (unknown origin) assessed as increase in fluorescence intensity at 5 uM by fluorescence spectrophotometric analysis; format: nucleic-acid assay
Quadruplex DNA [5] = test: Binding affinity to Parallel c-KIT2 G-quadruplex DNA (unknown origin) assessed as increase in fluorescence intensity at 5 uM by fluorescence spectrophotometric analysis; format: nucleic-acid assay
Quadruplex DNA [6] = test: Binding affinity to Parallel BCL2 G-quadruplex DNA (unknown origin) assessed as increase in fluorescence intensity at 5 uM by fluorescence spectrophotometric analysis; format: nucleic-acid assay
Quadruplex DNA [7] = test: Binding affinity to Parallel EAD G-quadruplex DNA (unknown origin) assessed as increase in fluorescence intensity at 5 uM by fluorescence spectrophotometric analysis; format: nucleic-acid assay
Quadruplex DNA [8] = test: Binding affinity to Parallel c-KIT1 G-quadruplex DNA (unknown origin) assessed as increase in fluorescence intensity at 5 uM by fluorescence spectrophotometric analysis; format: nucleic-acid assay
Quadruplex DNA [9] = test: Binding affinity to Antiparallel c-KIT G-quadruplex DNA (unknown origin) assessed as increase in fluorescence intensity at 5 uM by fluorescence spectrophotometric analysis; format: nucleic-acid assay
Quadruplex DNA [10] = test: Binding affinity to Antiparallel Bm G-quadruplex DNA (unknown origin) assessed as increase in fluorescence intensity at 5 uM by fluorescence spectrophotometric analysis; format: nucleic-acid assay
Quadruplex DNA [11] = test: Binding affinity to Antiparallel TBA G-quadruplex DNA (unknown origin) assessed as increase in fluorescence intensity at 5 uM by fluorescence spectrophotometric analysis; format: nucleic-acid assay
Calf thymus DNA = test: Binding affinity to calf thymus DNA (unknown origin) assessed as increase in fluorescence intensity at 5 uM by fluorescence spectrophotometric analysis; conditions: Bos taurus
DNA [12] = test: Binding affinity to Duplex DNA (unknown origin) assessed as increase in fluorescence intensity at 5 uM by fluorescence spectrophotometric analysis; format: nucleic-acid assay
Albumin = Albumin (Bos taurus, UniProt P02769); test: Binding affinity to bovine serum albumin assessed as increase in fluorescence intensity at 5 uM by fluorescence spectrophotometric analysis; format: cell-free; conditions: cattle
Chain of Albumin (P02769 whole entry): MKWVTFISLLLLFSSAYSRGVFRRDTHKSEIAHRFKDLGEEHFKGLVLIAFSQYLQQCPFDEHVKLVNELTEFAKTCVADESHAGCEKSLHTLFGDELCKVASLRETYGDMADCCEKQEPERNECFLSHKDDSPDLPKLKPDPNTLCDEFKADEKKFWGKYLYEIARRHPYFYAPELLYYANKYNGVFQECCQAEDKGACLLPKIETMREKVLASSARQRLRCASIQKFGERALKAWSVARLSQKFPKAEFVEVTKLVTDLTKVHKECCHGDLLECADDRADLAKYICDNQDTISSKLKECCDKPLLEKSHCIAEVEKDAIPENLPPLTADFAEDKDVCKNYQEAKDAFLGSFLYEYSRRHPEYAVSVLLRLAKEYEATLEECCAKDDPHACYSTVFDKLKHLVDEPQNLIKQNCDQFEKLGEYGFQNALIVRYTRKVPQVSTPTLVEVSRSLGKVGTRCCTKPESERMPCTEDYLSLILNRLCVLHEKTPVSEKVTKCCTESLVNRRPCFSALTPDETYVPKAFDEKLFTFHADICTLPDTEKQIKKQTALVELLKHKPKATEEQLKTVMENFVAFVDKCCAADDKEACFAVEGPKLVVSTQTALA

Quadruplex DNA [13] = test: Binding affinity to c-MYC G-quadruplex DNA (unknown origin) assessed as decrease in absorption band by measuring red shift at 5 uM by absorption spectra analysis; format: nucleic-acid assay
Quadruplex DNA [14] = test: Binding affinity to KRAS G-quadruplex DNA (unknown origin) assessed as decrease in absorption band by measuring red shift at 5 uM by absorption spectra analysis; format: nucleic-acid assay
Quadruplex DNA [15] = test: Binding affinity to c-MYC G-quadruplex DNA (unknown origin) assessed as dissociation constant by fluorescence spectrophotometric analysis; format: nucleic-acid assay
DNA [16] = test: Binding affinity to Duplex DNA (unknown origin) assessed as fluorescence quantum yield by fluorescence spectrophotometric analysis; format: nucleic-acid assay
Quadruplex DNA [17] = test: Stabilization of FAM/TAMRA-labelled KRAS G-quadruplex DNA (unknown origin) assessed as change in melting temperature in presence of duplex DNA by FRET assay; format: nucleic-acid assay
Quadruplex DNA [18] = test: Binding affinity to 5'-Cy5-labelled c-MYC G-quadruplex DNA (unknown origin) assessed as dissociation constant by fluorescence quenching analysis; format: nucleic-acid assay
Quadruplex DNA [19] = test: Binding affinity to 3'-Cy5-labelled c-MYC G-quadruplex DNA (unknown origin) assessed as dissociation constant by fluorescence quenching analysis; format: nucleic-acid assay
Quadruplex DNA [20] = test: Binding affinity to G-quadruplex DNA in human MDA-MB-231 cells assessed as increase in fluorescence at 2 uM incubated for 30 mins by DNase I digestion based confocal microscopic analysis; format: cell-based
Quadruplex DNA [21] = test: Binding affinity to G-quadruplex DNA in human MDA-MB-231 cells assessed as increase in fluorescence at 2 uM incubated for 30 mins by RNase A digestion based confocal microscopic analysis; format: cell-based
Quadruplex DNA [22] = test: Displacement of […] from G-quadruplex DNA in human MDA-MB-231 cells assessed as increase in fluorescence at 2 uM preincubated for 30 mins followed by PDS addition and measured after 20 mins by Hoechst 33342 staining based confocal microscopic analysis; format: cell-based; conditions: time 50.0 min
Quadruplex DNA [23] = test: Binding affinity to G-quadruplex DNA in human MDA-MB-231 cells assessed as increase in fluorescence at 2 uM incubated for 30 mins in presence of dimethyl sulfate by Hoechst 33342 staining based confocal microscopic analysis; format: cell-based
HEK-293T [24] = test: Effect on c-MYC gene expression in human HEK293T cells co-transfected with c-Myc promoter luciferase reporter assessed as decrease in c-MYC expression by measuring reduction in firefly luciferase expression at 10 to 20 uM incubated for 24 hrs by firefly luciferase based microplate analysis; format: functional, cell-based; conditions: dose 10-20 µM
HEK-293T [25] = test: Effect on KRAS gene expression in human HEK293T cells co-transfected with KRAS promoter luciferase reporter assessed as decrease in KRAS expression by measuring reduction in firefly luciferase expression at 10 to 20 uM incubated for 24 hrs by firefly luciferase based microplate analysis; format: functional, cell-based; conditions: dose 10-20 µM
MDA-MB-231 [26] = test: Induction of apoptosis in human MDA-MB-231 cells assessed as downregulation of c-MYC protein expression at 10 to 20 uM incubated for 24 hrs by Western blot analysis; format: functional, cell-based; conditions: dose 10-20 µM
MDA-MB-231 [27] = test: Induction of cell cycle arrest in human MDA-MB-231 cells assessed as accumulation of cells at sub-G1 phase at 15 uM incubated for 24 hrs by flow cytometry (reference value: 0.6 %); format: functional
MDA-MB-231 [28] = test: Induction of cell cycle arrest in human MDA-MB-231 cells assessed as accumulation of cells at G0-G1 phase at 20 uM incubated for 24 hrs by flow cytometry (reference value: 69.6 %); format: functional
MDA-MB-231 [29] = test: Induction of cell cycle arrest in human MDA-MB-231 cells assessed as accumulation of cells at S phase at 10 uM incubated for 24 hrs by flow cytometry (reference value: 13 %); format: functional
MDA-MB-231 [30] = test: Induction of cell cycle arrest in human MDA-MB-231 cells assessed as accumulation of cells at S phase at 20 uM incubated for 24 hrs by flow cytometry (reference value: 13 %); format: functional
MDA-MB-231 [31] = test: Induction of cell cycle arrest in human MDA-MB-231 cells assessed as accumulation of cells at G2-M phase at 20 uM incubated for 24 hrs by flow cytometry (reference value: 16.8 %); format: functional
MDA-MB-231 [32] = test: Inhibition of cell migration in human MDA-MB-231 cells at 10 to 20 uM incubated for 24 hrs by reverse-phase microscopy based scratch wound healing assay; format: functional; conditions: dose 10-20 µM
MDA-MB-231 [33] = test: Inhibition of colony formation in human MDA-MB-231 cells at 1.5 to 6 uM incubated for 3 days by crystal violet staining based analysis; format: functional, cell-based; conditions: dose 1.5-6 µM, time 3.0 day
MDA-MB-231 [34] = test: Antiproliferative activity against human MDA-MB-231 cells assessed as inhibition of cell growth incubated for 24 hrs by CCK-8 assay; format: functional, cell-based; conditions: MDA-MB-231, 24 h

## CCn1c2ccccc2c2cc(/C=C/c3sc4ccccc4[n+]3C)ccc21.[I-]
Quadruplex DNA [1]
  Activity: Active
Quadruplex DNA [2]
  Activity: Active
Quadruplex DNA [3]
  Activity: Active
Quadruplex DNA [4]
  Activity: Active
Quadruplex DNA [5]
  Activity: Active
Quadruplex DNA [6]
  Activity: Active
Quadruplex DNA [7]
  Activity: Active
Quadruplex DNA [8]
  Activity: Active
Quadruplex DNA [9]
  Activity: Active
Quadruplex DNA [10]
  Activity: Active
Quadruplex DNA [11]
  Activity: Active
Calf thymus DNA
  Activity: Active
DNA [12]
  Activity: inactive
Albumin
  Activity: Not Active
Quadruplex DNA [13]
  Activity: Active
Quadruplex DNA [14]
  Activity: Active
Quadruplex DNA [15]
  Kd: 700 nM
DNA [16]
  Activity: 0.03
Quadruplex DNA [17]
  ΔTm: 14 °C
Quadruplex DNA [18]
  Kd: 1100 nM
Quadruplex DNA [19]
  Kd: 1000 nM
Quadruplex DNA [20]
  Activity: inactive
Quadruplex DNA [21]
  Activity: Active
Quadruplex DNA [22]
  Activity: inactive
Quadruplex DNA [23]
  Activity: inactive
HEK-293T [24]
  Activity: Active
HEK-293T [25]
  Activity: Active
MDA-MB-231 [26]
  Activity: Active
MDA-MB-231 [27]
  Activity: 32.3%
MDA-MB-231 [28]
  Activity: 28.3%
MDA-MB-231 [29]
  Activity: 14.5%
MDA-MB-231 [30]
  Activity: 8.6%
MDA-MB-231 [31]
  Activity: 6.4%
MDA-MB-231 [32]
  inhibition: Active
MDA-MB-231 [33]
  inhibition: Active
MDA-MB-231 [34]
  IC50: 13300 nM

— ChEMBL document CHEMBL5550112, “Development of a fluorescent ligand that can illuminate nuclear G-quadruplexes and modulate oncogene expression” (Bioorg Med Chem, 2024)
